{"source": "paper PMC11211543", "about": "“Molecular mimicry of SARS-COV-2 antigens as a possible natural anti-cancer preventive immunization” (Frontiers in Immunology, 2024)", "key": {"[1]": {"tested_on": "CD3+/CD8+ T cells of PBMCs from vaccinated donors", "assay_type": "cell-based, human", "settings": "for percentage of circulating reacting CD8+ T cells specific to the homologous TAA epitope, average: TAAs paired to non-spike epitopes; for sum of the reactivities of all subjects for the epitope pair: value of the pair viral epitope/TAA; for percentage of circulating reacting CD8+ T cells specific to the spike peptide, average: PBMCs from 7 vaccinated donors stimulated ex vivo 3 days with the Spike peptide, Dextramer loaded with the same viral peptide"}, "[2]": {"tested_on": "PBMCs from HLA-A*02:01–positive individuals", "experiment": "IFN-γ ELISpot assay", "assay_type": "cell-based, human", "settings": "10 μg/mL peptide, 3×10^5 PBMCs per well, 20 hours, 37°C; SFU per 10^6 PBMCs; mean of subjects, triplicate tests averaged"}, "[3]": {"tested_on": "CD3+/CD8+ T cells of PBMCs from healthy vaccinated donors", "experiment": "pMHC multimer (tetramer) T cell staining", "assay_type": "cell-based, human", "settings": "MHC-class I tetramer staining"}, "[4]": {"tested_on": "CD8+ T cell", "settings": "59 Spike epitopes, different HLA alleles; cited from earlier work", "source_text": "We have recently assessed T cell reactivity against 59 epitopes predicted in the Spike protein associated to different HLA alleles, covering both the S1 and S2 subunits. In particular, 11 were associated with the HLA-A*02:01 and only three were located in the S1 subunit, namely […] at position 62 and […] at position 269 in the NTD region; […] at position 512 in the RBD region."}}, "data": [{"sequence": "ALLALTSAV [reference compound]", "values": [{"measurement": "percentage of circulating reacting CD8+ T cells specific to the homologous TAA epitope, average", "setting": "[1]", "value": 1.34, "unit": "%"}, {"measurement": "sum of the reactivities of all subjects for the epitope pair", "setting": "[1]", "value": "> 9 % of the total circulating T cells"}]}, {"sequence": "FVGEFFTDV [reference compound]", "values": [{"measurement": "percentage of circulating reacting CD8+ T cells specific to the homologous TAA epitope, average", "setting": "[1]", "value": 0.36, "unit": "%"}]}, {"sequence": "HLMSFPQSA", "values": [{"measurement": "percentage of circulating reacting CD8+ T cells specific to the spike peptide, average", "setting": "[1]", "value": 0.8, "unit": "%"}]}, {"sequence": "KIADYNYKL [Wuhan, Alpha, Delta]", "values": [{"measurement": "IFN-γ ELISpot, average over subjects", "setting": "[2]", "value": 9.8, "unit": "SFU"}, {"measurement": "percentage of circulating CD8+ T cells specific for the peptide, average", "setting": "[3]", "value": "0,18%"}]}, {"sequence": "KLLEEWNLV", "values": [{"measurement": "sum of the reactivities of all subjects for the epitope pair", "setting": "[1]", "value": "~ 6 % of the total circulating T cells"}]}, {"sequence": "LTDEMIAQY [reference compound]", "values": [{"measurement": "IFN-γ ELISpot, average over subjects", "setting": "[2]", "value": 10.8, "unit": "SFU"}]}, {"sequence": "NYNYLYRLF [reference compound]", "values": [{"measurement": "immunodominance of CD8+ T cell memory response", "setting": "[4]", "value": "strongest immunodominance"}]}, {"sequence": "RLLQETELV [reference compound]", "values": [{"measurement": "sum of the reactivities of all subjects for the epitope pair", "setting": "[1]", "value": "~ 6 % of the total circulating T cells"}]}, {"sequence": "VLLSMQGAV", "values": [{"measurement": "sum of the reactivities of all subjects for the epitope pair", "setting": "[1]", "value": "> 9 % of the total circulating T cells"}]}, {"sequence": "VLNDIFSRL", "values": [{"measurement": "percentage of circulating reacting CD8+ T cells specific to the spike peptide, average", "setting": "[1]", "value": 1.04, "unit": "%"}]}, {"sequence": "YLQPRTFLL", "values": [{"measurement": "IFN-γ ELISpot, average over subjects", "setting": "[2]", "value": 87.9, "unit": "SFU"}, {"measurement": "immunodominance of CD8+ T cell memory response", "setting": "[4]", "value": "strongest immunodominance"}, {"measurement": "percentage of circulating CD8+ T cells specific for the peptide, average", "setting": "[3]", "value": "1,23%"}]}]}
